ChEMBL document CHEMBL1201862, “PubChem BioAssay data set” (2004)
Activity calls are given as the source filed them.

Experiments:
[1] = tested on: HEK293; experiment: SAR Analysis of small molecule inhibitors of T-cell specific antigen receptor-induced NF-kB activation in a HEK-293T cell line using a luminescence assay - Set 2. [Related pubchem assays (depositor defined):AID435003, AID435012, AID489026]; type: functional, cell-based; conditions: Homo sapiens
[2] = tested on: HEK293; experiment: inhibitors of LMP1-driven NF-kB reporter, dose response, cell-based, HEK293, luciferase, cherry-pick (AID 588343); type: functional; conditions: Homo sapiens
[3] = molecular target: Heat shock protein HSP 90-alpha (Homo sapiens, UniProt P07900); type: functional, organism-based
[4] = Counterscreen for AddAB inhibitors: absorbance-based bacterial cell-based high throughput dose response assay for inhibitors of bacterial viability. [Related pubchem assays (depositor defined):AID435030, AID449728, AID449731, AID488942, AID488955, AID488956]; type: functional
[5] = cells; type: functional, cell-based
[6] = tested on: BJ; experiment: cells; type: functional, cell-based; conditions: Homo sapiens
[7] = tested on: Jurkat; experiment: SAR Analysis of small molecule inhibitors of T-cell specific antigen receptor-induced NF-kB activation in a Jurkat cell line using a luminescence assay - Set 2. [Related pubchem assays (depositor defined):AID435003, AID435012, AID465]; type: functional, cell-based; conditions: Homo sapiens
[8] = inhibitors of intracellular T. cruzi replication, confirmation, NIH3T3 host cells, beta-gal luminescence (AID 2044); type: functional, cell-based;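 also: intracellular parasites grown in NIH/3T3 mouse fibroblasts as host cells; luminescent beta-galactosidase reporter signal from transgenic T. cruzi replicating inside host cells; inhibitors lower the luminescence signal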
[9] = tested on: HEK293; experiment: HEK cell cytotoxicity by LDH release, dose response, cytotoxicity control for IDE activator project, fluorescence, HEK cells (AID 588440); type: functional, cell-based; conditions: Homo sapiens;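 also: cytotoxicity by LDH release measuring loss of membrane integrity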
[10] = cells; type: functional
[11] = molecular target: T1, Ubiquitin-conjugating enzyme E2 N (Homo sapiens, UniProt P61088); type: functional;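 also: Dose-response confirmation in a TR-FRET assay detecting UBC13-driven polyubiquitin chain formation, inhibition measured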
T1 sequence (P61088 whole entry): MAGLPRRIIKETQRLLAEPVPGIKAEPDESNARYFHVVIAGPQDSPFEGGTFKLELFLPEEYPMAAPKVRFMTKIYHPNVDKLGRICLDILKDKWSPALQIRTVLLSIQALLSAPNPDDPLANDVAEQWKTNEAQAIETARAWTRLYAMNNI

[12] = inhibitors of SNCA 5'UTR-driven reporter translation, confirmation, H4 neuroglioma cells, luminescence (AID 1988); type: functional, cell-based
[13] = enhancers of respiration in Yfh1-depleted yeast, dose response, Friedreich's ataxia, plus single-dose screen (AID 1465); type: functional;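 also: yeast depleted of Yfh1p frataxin homolog grown on glycerol needing respiration; WST-1 tetrazolium dye reduction as measure of cellular dehydrogenase metabolic activity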
[14] = non-specific cell cytotoxicity, dose response, cytotoxicity control for PAX8 inhibitor project, plate reader, dry powder samples (AID 743021); type: functional, cell-based
[15] = molecular target: T2, Heat shock factor protein 1 (Mus musculus, UniProt P38532); experiment: inhibition of MG132-induced HSE-luciferase signal, confirmation, cell-based, NIH3T3, luminescence, dose retest (AID 2382); type: functional;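 also: NIH3T3 fibroblasts with HSF1-driven luciferase reporter stressed by proteasome inhibitor MG132; luminescence from HSF1-driven luciferase expression after 8 hours of MG132 stress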
T2 sequence (P38532 whole entry): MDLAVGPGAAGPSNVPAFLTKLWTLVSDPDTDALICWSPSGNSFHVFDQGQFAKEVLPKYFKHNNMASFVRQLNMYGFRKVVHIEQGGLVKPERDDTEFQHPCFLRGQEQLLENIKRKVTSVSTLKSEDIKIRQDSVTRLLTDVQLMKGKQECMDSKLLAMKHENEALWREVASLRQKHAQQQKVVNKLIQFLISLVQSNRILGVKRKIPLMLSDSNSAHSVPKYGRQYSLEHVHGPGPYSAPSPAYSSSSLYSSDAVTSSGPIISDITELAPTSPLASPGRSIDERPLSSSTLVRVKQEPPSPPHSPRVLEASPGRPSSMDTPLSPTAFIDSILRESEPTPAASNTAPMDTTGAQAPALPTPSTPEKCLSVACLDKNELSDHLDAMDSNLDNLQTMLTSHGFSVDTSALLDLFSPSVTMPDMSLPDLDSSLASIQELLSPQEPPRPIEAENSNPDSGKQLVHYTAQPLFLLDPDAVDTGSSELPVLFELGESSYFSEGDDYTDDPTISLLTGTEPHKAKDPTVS

[16] = molecular target: T3, Mitochondrial peptide methionine sulfoxide reductase (Bos taurus, UniProt P54149); experiment: Absorbance-based biochemical high throughput dose response assay for activators of Methionine sulfoxide reductase A (MsrA).; type: functional
T3 sequence (P54149 whole entry): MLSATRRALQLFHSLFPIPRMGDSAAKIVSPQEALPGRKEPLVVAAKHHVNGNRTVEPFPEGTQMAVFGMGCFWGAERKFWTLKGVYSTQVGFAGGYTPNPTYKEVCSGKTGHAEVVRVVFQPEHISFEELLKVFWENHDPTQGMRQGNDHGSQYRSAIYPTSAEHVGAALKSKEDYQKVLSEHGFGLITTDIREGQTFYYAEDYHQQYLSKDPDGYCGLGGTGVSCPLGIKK

[17] = molecular target: T4, Protein skinhead-1 (Caenorhabditis elegans, UniProt P34707); type: functional
T4 sequence (P34707 whole entry): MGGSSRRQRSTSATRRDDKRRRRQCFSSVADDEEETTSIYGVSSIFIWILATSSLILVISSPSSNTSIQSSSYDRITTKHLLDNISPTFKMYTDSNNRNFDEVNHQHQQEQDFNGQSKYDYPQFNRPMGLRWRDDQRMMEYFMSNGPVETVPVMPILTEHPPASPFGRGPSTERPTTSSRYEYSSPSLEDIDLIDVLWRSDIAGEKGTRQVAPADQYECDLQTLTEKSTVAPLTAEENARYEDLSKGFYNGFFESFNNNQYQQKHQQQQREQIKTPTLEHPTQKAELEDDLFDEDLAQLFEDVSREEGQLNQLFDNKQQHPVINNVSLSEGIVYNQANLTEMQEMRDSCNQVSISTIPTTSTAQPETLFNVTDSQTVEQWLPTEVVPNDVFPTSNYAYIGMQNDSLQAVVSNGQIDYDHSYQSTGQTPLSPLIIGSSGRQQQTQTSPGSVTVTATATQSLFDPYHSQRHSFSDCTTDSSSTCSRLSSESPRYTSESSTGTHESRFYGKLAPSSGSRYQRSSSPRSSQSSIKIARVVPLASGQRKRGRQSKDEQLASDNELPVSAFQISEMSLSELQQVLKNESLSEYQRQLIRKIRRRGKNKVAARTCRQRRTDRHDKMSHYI

[18] = molecular target: T5, SUMO-activating enzyme (Homo sapiens, UniProt Q9UBT2); experiment: inhibitors of in vitro SUMOylation cascade, primary screen, biochemical, HTRF, uHTS (AID 2006); type: protein-complex assay
T5 sequence (Q9UBE0 whole entry): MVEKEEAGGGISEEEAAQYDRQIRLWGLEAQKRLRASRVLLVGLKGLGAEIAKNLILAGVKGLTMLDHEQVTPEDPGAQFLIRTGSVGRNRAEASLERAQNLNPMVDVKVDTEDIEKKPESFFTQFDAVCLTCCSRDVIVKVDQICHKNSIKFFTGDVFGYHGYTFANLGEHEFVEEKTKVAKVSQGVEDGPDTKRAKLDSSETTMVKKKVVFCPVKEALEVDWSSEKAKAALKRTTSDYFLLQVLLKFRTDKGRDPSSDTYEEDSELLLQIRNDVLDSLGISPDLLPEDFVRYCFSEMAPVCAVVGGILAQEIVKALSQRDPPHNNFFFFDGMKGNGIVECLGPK
T5 sequence (Q9UBT2 whole entry): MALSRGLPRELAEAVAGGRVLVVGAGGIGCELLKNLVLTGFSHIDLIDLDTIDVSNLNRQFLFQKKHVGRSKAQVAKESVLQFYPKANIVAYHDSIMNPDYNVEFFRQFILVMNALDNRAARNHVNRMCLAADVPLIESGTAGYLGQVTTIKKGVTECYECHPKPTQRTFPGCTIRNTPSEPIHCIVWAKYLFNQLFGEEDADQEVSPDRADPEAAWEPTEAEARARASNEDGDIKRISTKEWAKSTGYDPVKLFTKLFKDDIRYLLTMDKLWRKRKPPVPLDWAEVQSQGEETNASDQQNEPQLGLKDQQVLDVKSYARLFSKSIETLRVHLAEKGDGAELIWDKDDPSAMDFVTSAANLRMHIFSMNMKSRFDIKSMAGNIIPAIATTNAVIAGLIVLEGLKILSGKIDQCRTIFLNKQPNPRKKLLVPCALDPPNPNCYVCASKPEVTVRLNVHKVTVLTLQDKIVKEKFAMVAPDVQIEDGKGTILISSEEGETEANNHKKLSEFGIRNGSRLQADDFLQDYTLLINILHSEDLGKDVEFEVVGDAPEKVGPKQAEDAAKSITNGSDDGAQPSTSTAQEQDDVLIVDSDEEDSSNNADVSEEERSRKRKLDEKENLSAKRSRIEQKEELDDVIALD

[19] = molecular target: T5, SUMO-activating enzyme; experiment: SUMOylation inhibitor hit validation, confirmation, SUMOylation inhibitor project, biochemical, AlphaScreen (AID 2018); type: functional

CC(=O)NC(c1ccc2ccccc2c1)c1ccc2cccnc2c1O (centres undefined)
IC50 [1]: 1.88 µM (active)
AC50 [2]: 4.18 µM (active)
AC50 [3]: 1.98 µM (active)
IC50 [4]: > 118 µM (inactive)
EC50 [5]: 7.14 µM (active)
EC50 [6]: 6.35 µM (active)
IC50 [7]: 1.89 µM (active)
EC50 [8]: 0.306 µM (active)

CCOC(=O)C1=C(c2ccccc2)N=C(N)NC1c1ccc(OCc2ccc(Cl)cc2)c(OC)c1 (centres undefined)
IC50 [9]: 13 µM (inactive)
IC50 [10]: 9.22 µM (active)
IC50 [11]: > 20 µM (inactive)

CCOC(=O)c1c(C)[nH]c2c1-c1ccccc1C(=O)C2=O
EC50 [12]: 0.254 µM (active)
EC50 [13]: > 100 µM (active)
AC50 [14]: 4.93 µM (active)
EC50 [15]: 1.57 µM (active)

O=C(c1ccccc1)c1coc2c1C(=O)c1ccccc1C2=O
EC50 [16]: 37.7 µM (inactive)

CCOC(=O)c1c(C)oc2c1c(/C=N/CCC(=O)O)c(O)c1ccccc12
IC50 [17]: > 100 µM (inactive)
IC50 [18]: 28.8 µM (active)
IC50 [19]: 3.71 µM (active)
